Patent US20260076909A1, “SOLID COMPOSITION AND METHOD FOR PRODUCING THE SAME” (DKS Co. Ltd., priority 2022, published 2026)

Tests used:
[1] = Amorphization evaluation: XRD; assay type: physicochemical
Experimental: A “RINT UltimaIII horizontal goniometer (D/teX-25)” manufactured by Rigaku Corporation was used to obtain the XRD chart of such a solid composition. The XRD measurement conditions were the focusing method, X-ray: Cu/40 kV/40 mA, scanning range: 3.0° to 50.0°, and scanning axis: 2θ/θ.

[2] = Dissolution test 1: dissolution amount; assay type: physicochemical; settings: cannabidiol; 8 mg in capsule, 900 mL ion-exchanged water, 37° C., 0.45 μm filtrate
Experimental: As the dissolution testing apparatus, an “NTR-6600AST” manufactured by Toyama Sangyo Co., Ltd. was used; the vessel was charged with 900 mL of ion-exchanged water; for the purpose of degassing, the water was stirred overnight at a water temperature of 37° C.±0.2° C. A gelatin capsule (“HF capsule” manufactured by Matsuya Corporation) filled with the solid composition containing 8 mg of the cannabidiol was placed into a sinker, and immersed into the vessel. After a lapse of a predetermined time, sampling was performed in the vessel and the sample was filtered through a 0.45 μm membrane filter. […] The filtrate was diluted two-fold with ethanol and filtered through a 0.20 μm membrane filter; HPLC was performed to quantify the cannabidiol. For each solid composition, two samples were tested and the resultant values were averaged; the average was rounded to two decimal places to determine the dissolution amount.
The 0.45 μm membrane filter employed was “25HP045AN” (filter material: PTFE, pore size: 0.45 μm) manufactured by ADVANTEC. The 0.20 μm membrane filter employed was “13HP020AN” (filter material: PTFE, pore size: 0.20 μm) manufactured by ADVANTEC.
The HPLC conditions were column: octadecylsilyl column, solvent: mixed solution of acetonitrile/10 mM aqueous ammonium acetate solution, and wavelength: 210 nm. […]

Dissolution test 2 = assay type: physicochemical; settings: composition with 0.4 mg cannabidiol in 45 g ion-exchanged water, 0.45 μm filtrate
Experimental: In a 50 mL screw vial, such a solid composition including 0.4 mg of cannabidiol was dissolved in 45 g of ion-exchanged water. The resultant solution was filtered through a 0.45 μm membrane filter; the filtrate was diluted two-fold with ethanol and further filtered through a 0.20 μm membrane filter; HPLC was performed to quantify the cannabidiol. The value was rounded to two decimal places to determine the dissolution amount. The 0.45 μm membrane filter, the 0.20 μm membrane filter, and the HPLC conditions were as described in the dissolution test 1.

[3] = Oral absorption evaluation: animal experiment; assay type: in vivo; settings: male SD rats, 30 mg/kg in terms of cannabidiol, 0.5-24 hours, highest AUC of three rats
Experimental: Of the three rats, data of the highest AUC was employed.
In the LC-MS/MS measurement, as a pre-treatment, 20 μL of the plasma sample and 80 μL of methanol were placed into an Eppendorf tube and suspended for deproteinization. After the proteins were precipitated in a centrifuge, the supernatant was subjected to centrifugal filtration using a filter (manufactured by Millipore, Ultrafree-MC, Hydrophilic PTFE membrane, 0.2 μm). This solution and ultrapure water were mixed together in 1:1 (mass ratio), and used as the measurement sample. The measurement conditions of LC-MS/MS were column: octadecylsilyl column, ion source: ESI+, mobile phase: solution mixture of methanol/10 mM aqueous ammonium formate solution.
The solid composition of Example 5 was evaluated for oral absorption by an animal experiment similar to that for the solid composition of Example 3. Specifically, while the powder composed only of cannabidiol in Comparative Example 1 was used as the control, the animal experiment was performed in accordance with the above-described oral absorption evaluation method.

C=C(C)[C@@H]1CCC(C)=C[C@H]1c1c(O)cc(CCCCC)cc1O [Comparative Example 1, cannabidiol]
Form of the cannabinoid from the XRD chart (in words) [1]: crystalline state
Dissolution amount after lapse of 120 minutes [2]: 0.01 µg/mL
Dissolution amount after lapse of 240 minutes [2]: 0.01 µg/mL
Dissolution test 2 dissolution amount (Dissolution test 2): 0.03 µg/mL
AUC (area under the blood concentration time curve) of the cannabidiol ([3]; 30 mg/kg): 665 ng·h/mL
AUC ([3]; rat, plasma, read-out: AUC (area under the blood concentration time curve) of the cannabidiol): 812 ng·h/mL
